Measurements from US10835533B2, “1 -((3S,4R)-4-(3-fluorophenyl)-1-(2-methoxyethyl)pyrrolidin-3-yl)-3-(4-methyl-3-(2-methylpyrimidin-5-yl)-1-phenyl-1H-pyrazol-5-yl)urea as a TrkA kinase inhibitor” (Array BioPharma Inc., priority 2014, dated 2020).

What was measured:
[1] = Liver microsomal clearance, mouse; assay type: in vitro ADME; details: pH 7.4; Mouse liver microsomes; 1 mg/mL; 20 minutes
Procedure: (§1) The predicted hepatic clearance (CLh) value was calculated by scaling the in vitro half-life (t1/2) for stability of the compound in liver microsomes (1 mg/mL; 20 minutes) using the physical and physiological scaling factors used to predict intrinsic clearance (CLint) and hepatic clearance (CLhep) listed in Table 2 and employed in the following equations: […]
(§2) where D is the amount of cytochrome P450-related protein per mass of liver, W is the average mass of liver present per weight of animal, C is the liver microsomal concentration, and Q is the species-dependent hepatic blood flow.
(§3) A 100 mM potassium phosphate assay buffer solution (KPB) was prepared as follows. Both KH2PO4 and K2HPO4 were dissolved separately in reagent grade water resulting in final concentrations 100 mM. A 75:25 mixture v/v of K2HPO4:KH2PO4 was prepared and the pH of the solution was adjusted to 7.4 using diluted HCl or diluted NaOH solutions. Stock solutions of Compound 1, Compound 2 and Compound 3 were prepared at 10 mM (active compound) in DMSO. The stock solution was diluted immediately before use to 2.5 μM using the KPB solution to create the working standard. All test compounds were completely soluble in DMSO by visual inspection at room temperature. The NADPH-regenerating solution (NRS) was prepared on the day of analysis by diluting one volume of 17 mg/mL NADP^+ with one volume of 78 mg/mL glucose-6-phosphate (both prepared in KPB, pH 7.4) and 7.9 volumes of 20 mM MgCl2. The final concentrations of NADP^+ and glucose-6-phosphate were 1.7 mg/mL and 7.8 mg/mL, respectively. […]
(§4) All calculations were performed using BioAssay Enterprise. The mean peak area ratios were calculated by averaging the peak area ratios (n=2) of Compound 1, Compound 2, Compound 3, and the internal standard for each sample. Percent remaining was calculated by determining the ratio of the peak area ratio at each time point to the peak area ratio of the time-zero samples. The rate of loss of test compound (km) was determined by linear regression of −ln(f(t)) versus time. […] The t1/2 was determined dividing ln(2) by km. […]

[2] = Liver microsomal clearance, rat; assay type: in vitro ADME; details: pH 7.4; Rat liver microsomes; 1 mg/mL; 20 minutes
Procedure: as §1, §2, §3, §4

| CLhep predicted at 1 μM [1] [mL/min/kg] | CLhep predicted at 1 μM [2] [mL/min/kg] | Structure (SMILES) |
| --- | --- | --- |
| 50 | 22 | COCCN1C[C@@H](NC(=O)Nc2c(C)c(-c3cnc(C)nc3)nn2-c2ccccc2)[C@H](c2cccc(F)c2)C1 [Compound 1, 1-((3S,4R)-4-(3-fluorophenyl)-1-(2-methoxyethyl)pyrrolidin-3-yl)-3-(4-methyl-3-(2-methylpyrimidin-5-yl)-1-phenyl-1H-pyrazol-5-yl)urea] |
| 57 | 22 | COCCN1C[C@@H](NC(=O)Nc2c(C)c(-c3cnc(C)nc3)nn2-c2ccccc2)[C@H](c2ccc(F)c(F)c2)C1 [Compound 2, 1-((3S,4R)-4-(3,4-difluorophenyl)-1-(2-methoxyethyl)pyrrolidin-3-yl)-3-(4-methyl-3-(2-methylpyrimidin-5-yl)-1-phenyl-1H-pyrazol-5-yl)urea] |
| 60 | 23 | COCCN1C[C@@H](NC(=O)Nc2c(C)c(-c3cnn(C)c3)nn2-c2ccccc2)[C@H](c2ccc(F)cc2)C1 [Compound 3, 1-(1′,4-dimethyl-1-phenyl-1H,1′H-[3,4′-bipyrazol]-5-yl)-3-((3S,4R)-4-(4-fluorophenyl)-1-(2-methoxyethyl)pyrrolidin-3-yl)urea] |
